pEC50: −log10 of the molar value. Like-named read-outs stand apart in the source and are kept apart here.
Columns and labels:
hTRPM8 [1] = target: T1, hTRPM8 (Homo sapiens, UniProt Q7Z2W7); details: Table 1.8; according to WO2011/061330 A2 E Table C 3-14; cited from earlier work
T1 construct: expressed in transfected cells

[2] = Sensory study of topically applied Compound 101; assay type: in vivo, human
Method: The response of subjects to topically applied Compound 101 was assessed. Subjects were exposed to a solid formulation of Compound 101 in small quantities. […] In another assessment, subjects were exposed to a dilute airborne microparticulate Compound 101.

hTRPM8 [3] = target: T1, hTRPM8; experiment: Cell line stably expressing hTRPM8, agonist assay, compounds of Formula (I); assay type: cell-based; details: Table 1.7
Source text: A mammalian cell line derivative which stably expresses hTRPM8 was used in biological assays in association with testing the present compounds with cool-tasting or -feeling properties (Servant et al. US 2007/0259354 A1 and references cited therein). […] The present compounds have shown strong activity as agonists of hTRPM8. Assay results for compounds are illustrated in Table 1.1 below. Specifically, the Examples listed in Table 1.1, i.e., Compounds A1 to Compounds U10 are the specific compounds above that fall within Formula (I).

T1 sequence (Q7Z2W7 whole entry): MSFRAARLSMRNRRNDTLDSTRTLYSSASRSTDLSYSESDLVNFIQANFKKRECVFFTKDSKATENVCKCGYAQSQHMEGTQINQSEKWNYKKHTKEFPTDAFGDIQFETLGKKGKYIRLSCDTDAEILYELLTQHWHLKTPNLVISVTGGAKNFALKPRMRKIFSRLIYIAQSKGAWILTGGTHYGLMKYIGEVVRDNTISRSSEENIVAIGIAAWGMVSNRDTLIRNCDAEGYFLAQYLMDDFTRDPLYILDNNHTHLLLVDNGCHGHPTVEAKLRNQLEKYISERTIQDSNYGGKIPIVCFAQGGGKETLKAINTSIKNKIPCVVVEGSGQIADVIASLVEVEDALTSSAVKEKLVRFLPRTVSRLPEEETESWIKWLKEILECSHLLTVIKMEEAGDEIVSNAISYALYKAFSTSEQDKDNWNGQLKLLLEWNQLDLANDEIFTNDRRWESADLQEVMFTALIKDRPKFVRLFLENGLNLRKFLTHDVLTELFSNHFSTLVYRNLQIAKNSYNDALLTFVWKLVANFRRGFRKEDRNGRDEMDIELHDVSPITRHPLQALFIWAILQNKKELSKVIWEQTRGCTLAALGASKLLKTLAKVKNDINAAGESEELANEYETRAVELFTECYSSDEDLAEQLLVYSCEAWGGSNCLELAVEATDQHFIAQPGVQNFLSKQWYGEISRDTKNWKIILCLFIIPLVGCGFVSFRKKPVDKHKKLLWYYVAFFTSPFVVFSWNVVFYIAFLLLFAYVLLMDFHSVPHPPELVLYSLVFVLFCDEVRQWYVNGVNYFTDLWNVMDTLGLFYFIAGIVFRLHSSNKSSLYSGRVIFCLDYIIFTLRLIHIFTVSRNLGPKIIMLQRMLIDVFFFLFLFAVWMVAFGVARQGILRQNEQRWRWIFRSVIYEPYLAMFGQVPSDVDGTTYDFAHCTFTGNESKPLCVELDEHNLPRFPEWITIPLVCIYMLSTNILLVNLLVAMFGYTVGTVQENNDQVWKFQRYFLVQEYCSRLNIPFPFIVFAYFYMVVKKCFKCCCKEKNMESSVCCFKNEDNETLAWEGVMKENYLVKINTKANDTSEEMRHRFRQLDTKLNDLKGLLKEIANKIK

pEC50 (hTRPM8 [3])	EC50 Ratio (WS-3) (hTRPM8 [3])	Compound	also measured
< 4.00		Cc1ccc(OCC(=O)N(C)Cc2ccccc2)cc1 [drawing 56 R=4-Me R1=Methyl Ar=Phenyl]	
5.04	0.5	CCN(Cc1ccccc1)C(=O)COc1ccccc1 [drawing 56 R=H R1=Ethyl Ar=Phenyl]	

The next lines start with the compound.

Compound	pEC50 (hTRPM8 [3])	EC50 Ratio (WS-3) (hTRPM8 [3])	also measured
CCN(Cc1ccccc1)C(=O)C=Cc1ccc2c(c1)OCO2			pEC50 (hTRPM8 [1]): 5.82
Cc1ccc(OCC(=O)N(Cc2cccs2)c2ccn[nH]2)cc1 [Compound 101]			Sensation reported by subjects ([2]; exposure to a solid formulation in small quantities): all subjects reported a “tingling” and “cooling” sensation; Sensation reported by subjects ([2]; exposure to dilute airborne microparticulate compound): exhibited a “cooling smell” and induced “tingling sensation” on the skin
O=C(COc1ccc(Br)cc1)N(Cc1ccccc1)c1ccccn1 [drawing 56 R=4-Br R1=2-Pyridyl Ar=Phenyl]	4.81	0.2	
Cc1ccc(OCC(=O)N(Cc2ccccc2)c2ccccn2)cc1 [drawing 56 R=4-Me R1=2-Pyridyl Ar=Phenyl]	5.33	0.6	
CCN(Cc1ccccc1)C(=O)COc1ccc(C)cc1 [drawing 56 R=4-Me R1=Ethyl Ar=Phenyl]	6.11	4.2	

Reference: patent US20160339026A1, “TOPICAL COMPOSITIONS COMPRISING MODULATORS OF TRPM8” (Senomyx, Inc., priority 2015, published 2016)
